Measurements taken from PMC3572206 (Biomaterials, 2012).
pIC50: −log10 of the molar value.

What was measured:
MDA-1986 = assay: Cytotoxicity; format: cell-based, human; details: read-out: IC50: MDA-1986; 72 hrs post-addition
MDA-MB-468 = assay: Cytotoxicity; format: cell-based, human; details: read-out: IC50: MDA-MB-468; 72 hrs post-addition
[1] = test system: MDA-1986 human head and neck squamous cell carcinoma xenografts
MDA-MB-231 = assay: Cytotoxicity; format: cell-based, human; details: read-out: IC50: MDA-MB-231; 72 hrs post-addition
MDA-1986 cells = assay: Nitric oxide release in vitro; format: cell-based, human

Compound | pIC50 (MDA-1986) | pIC50 (MDA-MB-468) | progressive disease (PD) rate ([1]; 10 mg/kg, Sugar-NO1 s.c., JS-K i.v.) [%] | animals euthanized (tumor size exceeding 1000 mm^3 or necrosis of the injection site on the tail) ([1]; within 7 weeks) [%] | pIC50 (MDA-MB-231) | increase in release half-life compared to JS-K (MDA-1986 cells) [fold]
CCOC(=O)N1CCN(/[N+]([O-])=N/Oc2ccc([N+](=O)[O-])cc2[N+](=O)[O-])CC1 [JS-K, O^2-(2,4-Dinitrophenyl) 1-[(4-ethoxycarbonyl)piperazin-1-yl]diazen-1-ium-1,2-diolate, reference compound] | 4.80 | 4.38 | 100 | 100 | – | –
O=[N+]([O-])c1ccc(ON=[N+]([O-])N2CCN(CCOCCO)CC2)c([N+](=O)[O-])c1 [NO1, O^2-(2,4-Dinitrophenyl) 1-{[4-(2-(2-hydroxyethoxy))ethyl]piperazin-1-yl} diazen-1-ium-1,2-diolate] | 4.49 | 4.59 | – | – | 4.49 | 1
O^2-(2,4-Dinitrophenyl) 1-{[4-(2-hydroxy)ethyl]-3-methylpiperazin-1-yl}diazen-1-ium-1,2-diolate [NO2] | 4.24 | 4.57 | – | – | – | –
